Laboratory results from BindingDB's records for doi:10.1021/jm060193m (Universit&#224, 2006).

Columns and labels:
Integrase [1] = molecular target: T1, Integrase (Human immunodeficiency virus 1, UniProt Q7ZJM1); test: Inhibition of HIV1 integrase strand transfer activity
Integrase [2] = molecular target: T1, Integrase; test: Inhibition of HIV1 integrase 3' processing activity

T1 sequence (Q7ZJM1 whole entry): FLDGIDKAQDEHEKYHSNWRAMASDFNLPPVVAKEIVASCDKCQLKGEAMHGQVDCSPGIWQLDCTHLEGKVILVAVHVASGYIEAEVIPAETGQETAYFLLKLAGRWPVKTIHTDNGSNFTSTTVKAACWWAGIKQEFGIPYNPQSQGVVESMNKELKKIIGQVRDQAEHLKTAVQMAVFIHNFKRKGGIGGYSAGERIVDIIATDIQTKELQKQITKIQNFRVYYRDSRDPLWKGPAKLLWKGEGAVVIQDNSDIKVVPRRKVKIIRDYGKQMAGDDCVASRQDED

- IC50 (Integrase [1]): > 333 µM
- IC50 (Integrase [2]): > 333 µM
Structure (SMILES): COC(=O)C(=O)CC(=O)c1ccccc1
